We go through one molecule from PMC5838563, “Compounds producing an effective combinatorial regimen for disruption of HIV‐1 latency” (EMBO Molecular Medicine, 2017).

The test system of this assay is HIV‐1 LTR (Jurkat^Tat LTR‐DsRed clone #131). In words: mdHIV LTR‐DsRed reporter assay, clone #131. The assay is classed as cell-based. An excerpt:
HIV‐1 tends to integrate into actively transcribed regions of the host genome (Jordan et al, 2003; Lewinski et al, 2006; Ikeda et al, 2007). Each HIV‐1‐infected patient carries viral DNA integrated at different chromosomal locations, and as we have previously shown, the site of viral integration influences how latently infected T cells respond to different stimuli (Hashemi et al, 2016). Therefore, an ideal LRA should be capable of disrupting latency in cell models carrying integrated viral reporters at multiple different regions within the host genome. […]
Figure 5 Effect of PH02 on HIV provirus integrated at different chromosomal locations • A The effect of PH compounds was analyzed using clonal lines bearing single‐copy integrations of the mini‐dual fluorescent HIV‐1 LTR reporter, md‐HIV, where GFP is constitutively expressed from the EIF‐1α internal promoter, and DsRed from the 5′ LTR. • B Fluorescence‐activated cell sorting (FACS) of cells bearing md‐HIV provirus indicates expression of EIF‐1α‐GFP and LTR‐dsRed. Stimulation of the md‐HIV lines generally causes a shift of the fluorescence profile from GFP^+/DsRed^− toward GFP^+/DsRed^+. • C, D Clone 11 or clone 131 was treated with the indicated concentrations of PH02 (left panels) or PH02 in combination with 10 nM PEP005 (right panels) for 24 h and cells analyzed by flow cytometry. […]
(In general: In a reporter assay the amount or activity of a reporter protein is the signal.)

Take `CC(=O)Oc1ccccc1N(C=C1Sc2ccccc2C1=O)C(C)=O` [PH02, 2‐{acetyl[(3‐oxo‐1‐benzothien‐2(3H)‐ylidene)methyl]amino}phenyl acetate]: the “concentration reactivating viral transcription (LTR‐DsRed, ∆MFI)” value (PH02 alone, 24 h, serial dilutions 28–0.2 μM) is reported as “above 1.75 μM”. Moreover, for the setting “in combination with 10 nM PEP005, 24 h”, the “PH02 concentration producing increased effects on HIV‐1 LTR transcription with PEP005” value is “above 1.75 μM”.
